# Laboratory results taken from patent US20250333805A1, “HERICIUM ERINACEUS STRAIN HE015, MOLECULAR MARKERS AND USES THEREOF” (INFINITUS (CHINA) COMPANY LTD., priority 2024, published 2025).
# System: mice with chronic alcohol-induced gastric mucosal damage
# Test: Chronic alcohol-induced gastric mucosal damage mice model (60% ethanol intragastrically): body weight, survival, HE staining of gastric tissue
# Type: in vivo, Male KM mice
# Conditions: for body weight of the mice at the end of the experiment, compared with Model: extracts 10 mg/mL, Lansoprazole 0.35 mg/mL, 0.3 mL intragastrically once daily for 2 weeks, 60% ethanol in second week, P<0.05 where significant
# Protocol: Male KM mice, SPF grade, body weight of 18-22 g, 5-6 weeks of age, feeding temperature and humidity: 23±1° C. and 55±10%; 12 h day-and-night discontinuous illumination was used; conditions of the raising room were always kept stable, thereby ensuring the reliability of the test result. The mice took food and drank water freely.
# Male KM mice were adaptively raised for 7 d, and then randomly divided into the following 8 groups: • Blank control group 1: Control • Model control group 1: Model • Administration group 1: Positive • Administration group 2: HEF • Administration group 3: HEFP • Administration group 4: HEFX • Administration group 5: HESP • Administration group 6: HESX.
# There were 14 mice in the Model group, and 13 mice in the other groups, and the mice were fed with an ordinary fodder.
# Experimental duration is 2 weeks:
# First week: the mice in each administration group were prophylactically administered intragastrically once every day; and its administration concentration is shown in Table 9; meanwhile, the mice in the Control and Model groups were administered 0.3 mL of pure water intragastrically.
# Second week: the mice in the Model and each administration groups were administered 0.3 mL of 60% ethanol intragastrically once per day for modeling, to induce a chronic alcohol-induced gastric mucosal damage mice model, and modeling was performed for a week; meanwhile, the mice in the administration groups were administered (administration concentration and dosage were the same as those in the first week), the protective effects of different administration groups on gastric mucosa were observed.
# Administration was stopped the night before the end of the experiment; the mice were not allowed to take food, but allowed to drink water. Eyeballs were picked out and blood was collected, and then the mice were killed by cervical dislocation; gastric tissues were taken and placed into 4% paraformaldehyde stationary solution for immobilization, for use in pathological examination.
compound,measurement,setting,value
"Cc1c(OCC(F)(F)F)ccnc1C[S+]([O-])c1nc2ccccc2[nH]1 (stereo not drawn) [Positive, Lansoprazole]","body weight of the mice at the end of the experiment, compared with Model",FIG. 5A,significantly greater than that in the Model
same,"body weight of the mice at the end of the experiment, compared with Model","FIG. 5A, listed as Lansoprazole",may increase the body weight
same,death count of the mice at the end of the experiment,"same regimen, compared with other groups, FIG. 5B",obviously higher than that in other groups
same,HE staining of mice gastric tissues (gastric mucosa morphology),"same regimen, gastric tissue at end of experiment, FIG. 6","necrosis exfoliation of partial mucosal epithelial cells of the gastric tissue, loose arrangement of partial cells and infiltration of a small amount of inflammatory cells"
same,"survival rate of the mice at the end of the experiment, compared with Model","same regimen, survival curve FIG. 5B",slightly higher than that of the Model group
same,"body weight of the mice during modeling, compared with Control","second week, 60% ethanol modeling, P<0.01, FIG. 5A",lower than that in the Control
